The target in test [1] is T1, rat MCH 1 receptor (rMCH1R) (Rattus norvegicus, UniProt P97639).
T1 construct: expressed in transfected cells; host or cells: HEK 293 (membrane preparation)
Put plainly: Ligand binding assay (125I native-MCH), rMCH. To be noted: rMCH1R expressed in HEK 293, membranes, 0.2 nM 125I native-MCH. Here is the method:
(§1) Human embryonic kidney cells (293 total) expressing either human, rat, or mouse MCH receptor were harvested from 150 mm culture dishes using PBS. Spinning at 1500 rpm for 2 minutes initially pelleted cells. The resulting pellet was then homogenized in 15 mL ice cold sucrose buffer (25 mM HEPES, 0.3 M sucrose, pH 7.4) with a motorized, glass fitted, Teflon® homogenizer. The homogenate was centrifuged at 48,000×g at 4° C. for 10 minutes, resuspended in 15 mL assay buffer (25 mM HEPES, 10 mM MgCl2, 0.2% BSA, 0.1 mg/mL STI, 0.1 mg/mL Pefabloc®, 1 μM Phosphoramidon, pH 7.4) with a Tissue-Tearor® (Biospec Products) and centrifuged again at 48,000×g for 10 minutes. The pellet was homogenized for a third time in 15 mL assay buffer using the Tissue-Tearor® and again centrifuged at 48,000×g for 10 minutes. The resulting pellet was resuspended in assay buffer at a wet weight concentration of 10-20 mg/mL.
(§2) Binding assays were determined as described below using mouse, rat or human MCH 1 receptors (mMCH1R, rMCH1R, and hMCH1R, respectively) expressed in HEK 293; IC50 values were calculated.
(§3) Binding assays were performed in 96-well U-bottom plates. Membranes (100 μg tissue) were incubated at 30° C. for 90 minutes in assay buffer with various peptides in the presence of 0.2 nM 125I native-MCH (Perkin-Elmer Life Sciences, Boston, Mass.) in 100 μL total volume. Non-specific binding was assessed in the presence of 1 μM cold native-MCH. The reaction was terminated by rapid filtration through Unfilter-96 GF/C glass fiber filter plates (FilterMate® 196 Harvester, Packard Instrument Co., Meriden, Conn.) pre-soaked in PBS/0.5% BSA, followed by three washes with 300 μL ice-cold water. Bound radioactivity was determined using a TopCount® microplate scintillation and luminescence counter (Packard Instrument Co., Meriden, Conn.). Nonlinear regression analyses of drug concentration curves were performed using GraphPad Prism® (GraphPad Software, Inc., San Diego, Calif.).

The next test deals with T2, human MCH receptor (Homo sapiens, UniProt Q99705).
T2 construct: expressed in transfected cells
T2 sequence (Q99705 whole entry): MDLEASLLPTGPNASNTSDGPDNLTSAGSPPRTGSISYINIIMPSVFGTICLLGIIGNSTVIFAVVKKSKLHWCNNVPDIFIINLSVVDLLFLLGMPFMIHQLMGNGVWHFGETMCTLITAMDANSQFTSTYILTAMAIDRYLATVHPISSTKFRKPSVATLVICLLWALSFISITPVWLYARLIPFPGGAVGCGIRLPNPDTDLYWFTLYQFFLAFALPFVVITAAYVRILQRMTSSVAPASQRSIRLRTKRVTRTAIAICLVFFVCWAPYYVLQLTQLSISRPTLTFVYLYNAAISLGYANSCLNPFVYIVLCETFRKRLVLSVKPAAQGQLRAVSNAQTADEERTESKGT
The test is described as follows: hMCH FLIPR calcium mobilization functional assay. The format is cell-based. For orientation: Calcium assays in cells follow changes in intracellular calcium, usually with a dye or a luminescent sensor.

Test [2] deals with T3, human MCH 1 receptor (hMCH1R) (Homo sapiens, UniProt Q99705).
T3 construct: expressed in transfected cells; host or cells: HEK 293 (membrane preparation)
T3 sequence (Q99705 whole entry): as above
Put plainly: Ligand binding assay (125I native-MCH), hMCH. To be noted: hMCH1R expressed in HEK 293, membranes, 0.2 nM 125I native-MCH. Here is the method:
as §1, §2, §3

The next test has as its target T4, rat MCH1 receptor (Rattus norvegicus, UniProt P97639).
T4 construct: expressed in transfected cells
Put plainly: rMCH FLIPR calcium mobilization functional assay. The format is cell-based. As to conditions: CHOK1-Gqi cells. Here is the method: Pharmacological analyses were conducted using either a HT-PS100 device (Axiom Biotechnologies, San Diego, Calif.), which provides high-resolution dose-response fluorometric measurements of [Ca^++]i mobilization, or using a FLIPR® device (Molecular Devices, Sunnyvale, Calif.).
Materials: Pharmacological analysis was conducted using a FLIPR® device (Molecular Devices, Sunnyvale, Calif.). CHOK1-Gqi cells were stably transfected with the rat MCH1 receptor and maintained under G418 antibiotic pressure. FLIPR® assay buffer consisted of phenol red-free DMEM+2.5 mM probenecid. MCH peptide (Amgen, Inc.) was reconstituted in assay buffer and served as the positive agonist control for all experiments. Test compounds were prepared as 10 mM stocks in 100% DMSO and diluted to a top end working concentration of 10 μM in 96 well black, flat bottom, collagen-I coated plates (Becton Dickinson, Bedford, Mass.).
Methods: CHOK1-Gqi cells stably expressing MCH1R were maintained in Dulbeco's modified Eagle's medium (GIBCO/Life Technologies, Rockville, Md.) supplemented with 2 mM glutamine and 10% dialyzed fetal bovine serum (HyClone, Logan, Utah) at 37° C., 5% CO2. Cells were harvested by 10′ treatment with Versene (GIBCO/Life Technologies) followed by trituration, washing twice with cold (4° C.) hybridoma medium (Serum/Protein free, with L-glutamine, sodium bicarbonate, MOPS buffer) (Sigma-Aldrich Corp, St. Louis, Mo.) and replated onto 96 well black, flat bottom, collagen-I coated plates to a density of 10,000 cells/well. The cells were then loaded with the fluorescent calcium indicator Fura-2 (Molecular Probes, Eugene, Oreg.) at 1.6 μM for 60′ at room temperature. The loaded cells were then washed twice with 90 μl/well of wash buffer (1×HBSS, 20 mM HEPES, 2.5 mM probenecid).
Receptor-stimulated intracellular calcium responses were detected using FLIPR® by monitoring increases in the Fura-2 fluorescence response.
Test compounds were screened for MCH1R activity in the FLIPR® for both agonist and antagonist action. Agonist mode challenges were conducted at a maximum gradient concentration of 1 μM. Antagonist activity was tested by 10 min pre-incubation of cells at a compound concentration of defined to be 300× the EC50 of MCH (typically 1 μM), with subsequent introduction of MCH at a concentration 5-fold of EC50 as determined in preliminary experiments.
Schild experiments were conducted on the FLIPR® for selected compounds by co-administering antagonist compounds together with MCH peptide. Several fixed concentrations of antagonist compounds were prepared in 10-fold increments, and presented to the cells in a gradient of increasing MCH concentration. Values for compound pA2 were calculated by linear regression of MCH EC50s as a function of antagonist concentration.

In US20050256161A1, “Melanin concentrating hormone receptor antagonists” (priority 2003, published 2005) one finds IC50 and Ki data, which are given here for 6 compounds.

In general, IC50 refers to the point on the concentration scale where inhibition reaches its midpoint. The low end stands for higher potency, the high end for lower potency. For orientation: Ki means a dissociation constant, usually derived from enzyme kinetics or from competition with a known ligand.

T4 sequence (P97639 whole entry): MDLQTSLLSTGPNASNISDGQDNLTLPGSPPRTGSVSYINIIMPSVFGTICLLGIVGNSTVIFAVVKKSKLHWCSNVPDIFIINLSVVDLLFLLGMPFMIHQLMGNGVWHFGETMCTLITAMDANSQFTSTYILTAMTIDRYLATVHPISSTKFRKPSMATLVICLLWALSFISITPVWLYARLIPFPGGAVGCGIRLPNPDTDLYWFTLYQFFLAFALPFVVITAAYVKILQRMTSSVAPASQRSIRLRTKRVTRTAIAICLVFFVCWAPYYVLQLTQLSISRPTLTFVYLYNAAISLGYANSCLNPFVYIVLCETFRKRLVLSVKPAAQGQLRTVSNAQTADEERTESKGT
T1 sequence (P97639 whole entry): as above

Consider `Cc1ccc(Oc2ccc(C(=O)NCCN3CCCC3)cc2NC(=O)Nc2c(C)cccc2C)cc1C` [Compound 35, 4-(3,4-dimethylphenoxy)-3-[3-(2,6-dimethylphenyl)ureido]-N-(2-pyrrolidin-1-yl-ethyl)benzamide], for which the IC50 in test [1] (threshold 100 μM or less) and in test [2] (threshold 100 μM or less) was ≤ 100 µM throughout. Also, the Ki was ≤ 0.1 µM at human MCH receptor (threshold 100 nM or less), ≤ 100 µM at human MCH receptor (threshold 100 μM or less) and ≤ 100 µM on rat MCH1 receptor (threshold 100 μM or less).

For `Cc1ccc(Oc2ccc(C(=O)NCCN3CCCC3)cc2NC(=O)Nc2cccc3ccccc23)cc1C` [Compound 36, 4-(3,4-dimethylphenoxy)-3-(3-naphthalen-1-yl-ureido)-N-(2-pyrrolidin-1-yl-ethyl)benzamide], the IC50 in test [1] (threshold 100 μM or less) was ≤ 100 µM; in test [2] (threshold 100 nM or less) it was ≤ 0.1 µM; in test [2] (threshold 100 μM or less), ≤ 100 µM. Also, the Ki on human MCH receptor (threshold 100 μM or less) and at rat MCH1 receptor (threshold 100 μM or less) was ≤ 100 µM throughout.

Regarding `Cc1ccc(Oc2ccc(C(=O)NCCN3CCCC3)cc2NC(=O)Nc2ccc(C(C)C)cc2)cc1C` [Compound 34, 4-(3,4-dimethylphenoxy)-3-[3-(4-isopropylphenyl)ureido]-N-(2-pyrrolidin-1-yl-ethyl)benzamide], the IC50 in test [1] (threshold 100 μM or less) was ≤ 100 µM; in test [2] (threshold 100 nM or less), ≤ 0.1 µM; in test [2] (threshold 100 μM or less) it was ≤ 100 µM. The Ki at human MCH receptor (threshold 100 nM or less) is ≤ 0.1 µM; at human MCH receptor (threshold 100 μM or less) it was ≤ 100 µM; at rat MCH1 receptor (threshold 100 μM or less), ≤ 100 µM.

On to `Cc1ccc(Oc2ccc(C(=O)NCCN3CCCC3)cc2NC(=O)Nc2ccc(Br)cc2)cc1C` [Compound 38, 3-[3-(4-bromophenyl)ureido]-4-(3,4-dimethylpherioxy)-N-(2-pyrrolidin-1-yl-ethyl)benzamide], for which the concentration for half-maximal inhibition (IC50) in test [1] (threshold 100 nM or less) is ≤ 0.1 µM; in test [1] (threshold 100 μM or less), ≤ 100 µM; in test [2] (threshold 100 nM or less), ≤ 0.1 µM; in test [2] (threshold 100 μM or less), ≤ 100 µM. Moreover, the inhibition constant Ki on human MCH receptor (threshold 100 nM or less) is ≤ 0.1 µM; on human MCH receptor (threshold 100 μM or less), ≤ 100 µM; on rat MCH1 receptor (threshold 100 nM or less) it was ≤ 0.1 µM; at rat MCH1 receptor (threshold 100 μM or less), ≤ 100 µM.

In the case of `Cc1ccc(Oc2ccc(C(=O)NCCN3CCCC3)cc2NC(=O)Nc2ccccc2Cl)cc1C` [Compound 41, 3-[3-(2-chlorophenyl)ureido]-4-(3,4-dimethylphenoxy)-N-(2-pyrrolidin-1-yl-ethyl)benzamide], the IC50 in test [1] (threshold 100 nM or less) was ≤ 0.1 µM; in test [1] (threshold 100 μM or less), ≤ 100 µM; in test [2] (threshold 100 nM or less), ≤ 0.1 µM; in test [2] (threshold 100 μM or less), ≤ 100 µM. Besides, the Ki on human MCH receptor (threshold 100 nM or less) is ≤ 0.1 µM; on human MCH receptor (threshold 100 μM or less), ≤ 100 µM; at rat MCH1 receptor (threshold 100 nM or less) it was ≤ 0.1 µM; on rat MCH1 receptor (threshold 100 μM or less) it was ≤ 100 µM.

Consider `Cc1ccc(Oc2ccc(C(=O)NCCN3CCCC3)cc2NC(=O)Nc2c(C(C)C)cccc2C(C)C)cc1C` [Compound 37, 3-[3-(2,6-diisopropylphenyl)ureido]-4-(3,4-dimethylphenoxy)-N-(2-pyrrolidin-1-yl-ethyl)benzamide], for which the IC50 in test [1] (threshold 100 μM or less) was ≤ 100 µM; in test [2] (threshold 100 nM or less), ≤ 0.1 µM; in test [2] (threshold 100 μM or less) it was ≤ 100 µM. Further, the Ki at human MCH receptor (threshold 100 μM or less) and on rat MCH1 receptor (threshold 100 μM or less) was ≤ 100 µM in each case.
